Key:
[1] = biological target: T1, CYP1A2 (Homo sapiens, UniProt P05177); experiment: CYP1A2 inhibition (fluorescent substrate); type: in vitro ADME; conditions: CYP1A2, CEC substrate; read-out: Cyp IC50 1A2
T1 sequence (P05177 1-516): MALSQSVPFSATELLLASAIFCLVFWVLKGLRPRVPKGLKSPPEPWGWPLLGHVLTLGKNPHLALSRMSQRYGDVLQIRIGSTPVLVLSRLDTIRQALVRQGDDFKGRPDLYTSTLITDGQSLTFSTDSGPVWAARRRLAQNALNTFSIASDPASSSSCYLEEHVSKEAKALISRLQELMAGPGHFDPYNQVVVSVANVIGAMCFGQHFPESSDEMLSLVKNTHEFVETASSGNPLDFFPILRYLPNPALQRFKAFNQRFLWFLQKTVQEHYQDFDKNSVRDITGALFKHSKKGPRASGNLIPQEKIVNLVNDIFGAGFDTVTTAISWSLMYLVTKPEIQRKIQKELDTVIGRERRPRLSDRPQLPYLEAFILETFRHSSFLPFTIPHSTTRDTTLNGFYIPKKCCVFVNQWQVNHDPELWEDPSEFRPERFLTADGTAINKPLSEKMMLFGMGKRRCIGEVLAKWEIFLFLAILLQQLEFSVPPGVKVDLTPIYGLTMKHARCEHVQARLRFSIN
Description: CYP (Cytochrome P450) enzymes are the major drug metabolizing enzymes present in the liver. The inhibition of CYP enzyme activity (IC50) for each of CYP1A2, CYP2C19, CYP2C9, CYP2D6, CYP3A4(BFC) and CYP3A4(BQ) is determined for compounds, where inhibition of metabolism of a known substrate leads to a decrease in the fluorescence of the metabolized product. The fluorescence of the product is monitored as a function of compound concentration.
Compounds are dissolved in dimethyl sulfoxide to a concentration of 100 mM. These are diluted 1 μL into 82 μL of acetonitrile. […] These are then serially diluted 1:1 (160 μL to 160 μL co-factor mix) for a total of 10 points. A 10 μL aliquot of this final mixture is dispensed into 384 well assay plates and incubated for 10 minutes at 37° C. […] Assay plates are incubated at 37° C. […] The signal versus compound concentration is used to determine the IC50. The enzymes and substrates for this assay are obtained from BD Biosciences.

[2] = biological target: B-Raf (Homo sapiens, UniProt P15056); experiment: B-Raf biochemical kinase inhibition (AlphaScreen, biotin-MEK1 substrate); conditions: 100 μM ATP
Description: Compounds to be tested are diluted in dimethyl sulfoxide to a concentration of 0.1 mM. These are serially diluted 15 μL into 30 μL of dimethyl sulfoxide seven times in 96 well plates for a total of 8 dilution points, and for each dilution point 1 μL is added to a well of an assay plate. […] The reaction is started with addition of 10 μL of 200 μM ATP (i.e. final 100 μM ATP). […] The plates are incubated for 3 hours at room temperature and read on Envision reader (Perkin Elmer). […] The signal vs. compound concentration is used to determine the IC50.

[3] = test system: COLO205 colon adenocarcinoma cells (B-Raf V600E); experiment: COLO205 cell growth inhibition (ATPlite); type: cell-based; conditions: Homo sapiens, COLO 205, 72 h; COLO205, 3 days incubation
How it was run: (§1)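 ATPlite luminescence, taken as a cell-number measure, gave IC50 values after a 3-day 37° C, 5% CO2 incubation. Compounds were tested as 8-point threefold titrations, highest final concentration 10 μM, added to cells seeded the day before.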

[4] = test system: SW620 colon adenocarcinoma cells (wild-type B-RAF); experiment: SW620 cell growth inhibition (ATPlite); type: cell-based; conditions: Homo sapiens, SW-620, 72 h; SW620, 3 days incubation
How it was run: as §1

Chain of B-Raf (P15056 whole entry): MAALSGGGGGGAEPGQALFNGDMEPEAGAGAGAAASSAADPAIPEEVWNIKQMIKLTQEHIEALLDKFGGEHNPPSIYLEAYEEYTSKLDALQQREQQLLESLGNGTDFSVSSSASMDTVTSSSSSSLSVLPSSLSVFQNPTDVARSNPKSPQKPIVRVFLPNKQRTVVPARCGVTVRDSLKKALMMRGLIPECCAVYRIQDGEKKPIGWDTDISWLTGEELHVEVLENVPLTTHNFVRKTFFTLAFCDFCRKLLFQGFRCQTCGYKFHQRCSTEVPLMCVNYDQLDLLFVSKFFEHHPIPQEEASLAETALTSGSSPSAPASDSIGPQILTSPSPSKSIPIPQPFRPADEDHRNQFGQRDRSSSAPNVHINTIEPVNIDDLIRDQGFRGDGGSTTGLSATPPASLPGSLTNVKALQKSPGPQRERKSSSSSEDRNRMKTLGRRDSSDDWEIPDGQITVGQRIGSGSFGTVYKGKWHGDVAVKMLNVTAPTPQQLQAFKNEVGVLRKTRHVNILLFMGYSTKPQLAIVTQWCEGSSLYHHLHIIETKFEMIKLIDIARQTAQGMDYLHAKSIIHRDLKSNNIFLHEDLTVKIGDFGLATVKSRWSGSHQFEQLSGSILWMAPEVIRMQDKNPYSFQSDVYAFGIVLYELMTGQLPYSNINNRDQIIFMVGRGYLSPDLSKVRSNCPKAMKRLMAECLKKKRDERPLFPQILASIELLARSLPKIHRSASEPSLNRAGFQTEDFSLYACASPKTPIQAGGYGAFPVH

SMILES | IC50 [1] [µM] | IC50 [2] [µM] | IC50 [3] [µM] | IC50 [4] [µM]
CCCS(=O)(=O)Nc1ccc(F)c(C(=O)c2c[nH]c3ncc(-c4cnc(C)nc4)cc23)c1F [P-2211, Propane-1-sulfonic acid {2,4-difluoro-3-[5-(2-methyl-pyrimidin-5-yl)-1H-pyrrolo[2,3-b]pyridine-3-carbonyl]-phenyl}-amide] | > 10 | < 0.01 | < 1 | > 10
Cc1cnc2[nH]cc(C(=O)c3c(F)ccc(NS(=O)(=O)c4ccccc4F)c3F)c2c1 [P-2014, N-[2,4-Difluoro-3-(5-methyl-1H-pyrrolo[2,3-b]pyridine-3-carbonyl)-phenyl]-2-fluoro-benzenesulfonamide] | > 10 | < 0.1 | < 5 | > 10
N#Cc1ccnc2[nH]cc(C(=O)c3c(F)ccc(NS(=O)(=O)c4cccnc4)c3F)c12 [P-2077, Pyridine-3-sulfonic acid [3-(4-cyano-1H-pyrrolo[2,3-b]pyridine-3-carbonyl)-2,4-difluoro-phenyl]-amide] | > 10 | < 0.01 |  | > 10
N#Cc1ccnc2[nH]cc(C(=O)c3c(F)ccc(NS(=O)(=O)c4ccccc4F)c3F)c12 [P-2020, N-[3-(4-Cyano-1H-pyrrolo[2,3-b]pyridine-3-carbonyl)-2,4-difluoro-phenyl]-2-fluoro-benzenesulfonamide] | > 10 | < 0.01 |  | > 10
CCCS(=O)(=O)Nc1ccc(F)c(C(=O)c2c[nH]c3ncc(-c4cnc(N5CCOCC5)nc4)cc23)c1F [P-2197, Propane-1-sulfonic acid {2,4-difluoro-3-[5-(2-morpholin-4-yl-pyrimidin-5-yl)-1H-pyrrolo[2,3-b]pyridine-3-carbonyl]-phenyl}-amide] | > 10 | < 0.01 |  | 
CCCS(=O)(=O)Nc1ccc(F)c(C(=O)c2c[nH]c3ncc(-c4cnc(OC)nc4OC)cc23)c1F [P-2199, Propane-1-sulfonic acid {3-[5-(2,4-dimethoxy-pyrimidin-5-yl)-1H-pyrrolo[2,3-b]pyridine-3-carbonyl]-2,4-difluoro-phenyl}-amide] | > 10 | < 0.1 |  | 
CCCS(=O)(=O)Nc1ccc(F)c(C(=O)c2c[nH]c3ncc(-c4cccc(S(C)(=O)=O)c4)cc23)c1F [P-2228, Propane-1-sulfonic acid {2,4-difluoro-3-[5-(3-methanesulfonyl-phenyl)-1H-pyrrolo[2,3-b]pyridine-3-carbonyl]-phenyl}-amide] | > 10 | < 0.01 |  | > 10
CCCS(=O)(=O)Nc1ccc(F)c(C(=O)c2c[nH]c3ncc(-c4ccc(OC)nc4OC)cc23)c1F [P-2184, Propane-1-sulfonic acid {3-[5-(2,6-dimethoxy-pyridin-3-yl)-1H-pyrrolo[2,3-b]pyridine-3-carbonyl]-2,4-difluoro-phenyl}-amide] | > 10 | < 0.1 |  | 
CCCS(=O)(=O)Nc1ccc(F)c(C(=O)c2c[nH]c3ncc(-c4cncc(S(C)(=O)=O)c4)cc23)c1F [P-2188, Propane-1-sulfonic acid {2,4-difluoro-3-[5-(5-methanesulfonyl-pyridin-3-yl)-1H-pyrrolo[2,3-b]pyridine-3-carbonyl]-phenyl}-amide] | > 10 | < 0.01 |  | 
CCCS(=O)(=O)Nc1ccc(F)c(C(=O)c2c[nH]c3ncc(-c4ccc(C(=O)NCC)nc4)cc23)c1F [P-2151, 5-{3-[2,6-Difluoro-3-(propane-1-sulfonylamino)-benzoyl]-1H-pyrrolo[2,3-b]pyridin-5-yl}-pyridine-2-carboxylic acid ethylamide] | > 10 | < 0.01 | < 1 | 
CCCS(=O)(=O)Nc1cccc(C(=O)c2c[nH]c3ncc(-c4cnc(N(C)C)nc4)cc23)c1F [P-2408, Propane-1-sulfonic acid {3-[5-(2-dimethylamino-pyrimidin-5-yl)-1H-pyrrolo[2,3-b]pyridine-3-carbonyl]-2-fluoro-phenyl}-amide] | > 10 | < 0.01 | < 1 | 
CCCS(=O)(=O)Nc1ccc(F)c(C(=O)c2c[nH]c3ncc(-c4ccnc(F)c4)cc23)c1F [P-2192, Propane-1-sulfonic acid {2,4-difluoro-3-[5-(2-fluoro-pyridin-4-yl)-1H-pyrrolo[2,3-b]pyridine-3-carbonyl]-phenyl}-amide] | > 10 | < 0.01 |  | > 10
O=C(c1c(F)ccc(NS(=O)(=O)c2c(F)cccc2F)c1F)c1c[nH]c2ncc(Cl)cc12 [P-2003, N-[3-(5-Chloro-1H-pyrrolo[2,3-b]pyridine-3-carbonyl)-2,4-difluoro-phenyl]-2,6-difluoro-benzenesulfonamide] | > 10 | < 0.1 | < 5 | 
Cc1cnc2[nH]cc(C(=O)c3c(F)ccc(NS(=O)(=O)c4c(F)cccc4F)c3F)c2c1 [P-2024, N-[2,4-Difluoro-3-(5-methyl-1H-pyrrolo[2,3-b]pyridine-3-carbonyl)-phenyl]-2,6-difluoro-benzenesulfonamide] | > 10 | < 0.1 | < 5 | 

Results, then the molecule that gave them:

IC50 [1] [µM] | IC50 [2] [µM] | IC50 [3] [µM] | IC50 [4] [µM] | SMILES
> 10 | < 0.01 | < 1 |  | Cc1cnc2[nH]cc(C(=O)c3c(F)ccc(NS(=O)(=O)c4cccnc4)c3F)c2c1 [P-2069, Pyridine-3-sulfonic acid [2,4-difluoro-3-(5-methyl-1H-pyrrolo[2,3-b]pyridine-3-carbonyl)-phenyl]-amide]
> 10 | < 0.1 |  | > 10 | N#Cc1cnc2[nH]cc(C(=O)c3cccc(NS(=O)(=O)c4ccccc4F)c3F)c2c1 [P-2051, N-[3-(5-Cyano-1H-pyrrolo[2,3-b]pyridine-3-carbonyl)-2-fluoro-phenyl]-2-fluoro-benzenesulfonamide]
> 10 | < 0.01 |  |  | CCCS(=O)(=O)Nc1ccc(F)c(C(=O)c2c[nH]c3ncc(-c4ccc(S(N)(=O)=O)cc4)cc23)c1F [P-2194, 4-{3-[2,6-Difluoro-3-(propane-1-sulfonylamino)-benzoyl]-1H-pyrrolo[2,3-b]pyridin-5-yl}-benzenesulfonamide]
> 10 | < 0.01 | < 5 |  | COc1ccnc2[nH]cc(C(=O)c3c(F)ccc(NS(=O)(=O)c4cccc(F)c4)c3F)c12 [P-2023, N-[2,4-Difluoro-3-(4-methoxy-1H-pyrrolo[2,3-b]pyridine-3-carbonyl)-phenyl]-3-fluoro-benzenesulfonamide]
> 10 | < 0.1 |  | > 10 | N#Cc1ccnc2[nH]cc(C(=O)c3c(F)ccc(NS(=O)(=O)c4c(F)cccc4F)c3F)c12 [P-2037, N-[3-(4-Cyano-1H-pyrrolo[2,3-b]pyridine-3-carbonyl)-2,4-difluoro-phenyl]-2,6-difluoro-benzenesulfonamide]
> 10 | < 0.01 |  |  | CCCS(=O)(=O)Nc1ccc(F)c(C(=O)c2c[nH]c3ncc(-c4ccc(C(=O)NC5CC5)nc4)cc23)c1F [P-2181, 5-{3-[2,6-Difluoro-3-(propane-1-sulfonylamino)-benzoyl]-1H-pyrrolo[2,3-b]pyridin-5-yl}-pyridine-2-carboxylic acid cyclopropylamide]
> 10 | < 0.1 |  | > 10 | N#Cc1cnc2[nH]cc(C(=O)c3cccc(NS(=O)(=O)c4c(F)cccc4F)c3F)c2c1 [P-2054, N-[3-(5-Cyano-1H-pyrrolo[2,3-b]pyridine-3-carbonyl)-2-fluoro-phenyl]-2,6-difluoro-benzenesulfonamide]
> 10 | < 0.01 |  |  | CCCS(=O)(=O)Nc1ccc(F)c(C(=O)c2c[nH]c3ncc(-c4ccc(C(=O)NC)nc4)cc23)c1F [P-2180, 5-{3-[2,6-Difluoro-3-(propane-1-sulfonylamino)-benzoyl]-1H-pyrrolo[2,3-b]pyridin-5-yl}-pyridine-2-carboxylic acid methylamide]

From patent US8198273B2, “Compounds and methods for kinase modulation, and indications therefor” (Plexxikon Inc., priority 2009, dated 2012)
